Values of other authors, collected in US9549940B2, “Sustained-release formulations of topiramate” (Supernus Pharmaceuticals, Inc., priority 2006, dated 2017).

Experiments:
[1] = oral administration of an immediate release dosage form
[2] = room temperature

SMILES: CC1(C)OC2[C@@H](CO[C@@]3(COS(N)(=O)=O)OC(C)(C)O[C@@H]23)O1 (stereo partly drawn) [topiramate, 2,3:4,5-Di-O-isopropylidene-beta-D-fructopyranose sulfamate]
- time of plasma drug concentration peak [1]: approximately 2 hours
- solubility of topiramate in water [2]: about 9.8 mg/ml
